Results published in patent publication US20260374773A1, “MULTI-CYCLIC IRAK AND FLT3 INHIBITING COMPOUNDS AND USES THEREOF” (CHILDREN'S HOSPITAL MEDICAL CENTER, priority 2022, published 2026).

Columns and labels:
[1] = biological target: T1, FLT3 D835H (Homo sapiens, UniProt P36888, D835H); assay: DiscoverX KINOMEscan active site-directed competition binding, FLT3 D835H; conditions: no ATP
T1 sequence (P36888 27-993 D835H): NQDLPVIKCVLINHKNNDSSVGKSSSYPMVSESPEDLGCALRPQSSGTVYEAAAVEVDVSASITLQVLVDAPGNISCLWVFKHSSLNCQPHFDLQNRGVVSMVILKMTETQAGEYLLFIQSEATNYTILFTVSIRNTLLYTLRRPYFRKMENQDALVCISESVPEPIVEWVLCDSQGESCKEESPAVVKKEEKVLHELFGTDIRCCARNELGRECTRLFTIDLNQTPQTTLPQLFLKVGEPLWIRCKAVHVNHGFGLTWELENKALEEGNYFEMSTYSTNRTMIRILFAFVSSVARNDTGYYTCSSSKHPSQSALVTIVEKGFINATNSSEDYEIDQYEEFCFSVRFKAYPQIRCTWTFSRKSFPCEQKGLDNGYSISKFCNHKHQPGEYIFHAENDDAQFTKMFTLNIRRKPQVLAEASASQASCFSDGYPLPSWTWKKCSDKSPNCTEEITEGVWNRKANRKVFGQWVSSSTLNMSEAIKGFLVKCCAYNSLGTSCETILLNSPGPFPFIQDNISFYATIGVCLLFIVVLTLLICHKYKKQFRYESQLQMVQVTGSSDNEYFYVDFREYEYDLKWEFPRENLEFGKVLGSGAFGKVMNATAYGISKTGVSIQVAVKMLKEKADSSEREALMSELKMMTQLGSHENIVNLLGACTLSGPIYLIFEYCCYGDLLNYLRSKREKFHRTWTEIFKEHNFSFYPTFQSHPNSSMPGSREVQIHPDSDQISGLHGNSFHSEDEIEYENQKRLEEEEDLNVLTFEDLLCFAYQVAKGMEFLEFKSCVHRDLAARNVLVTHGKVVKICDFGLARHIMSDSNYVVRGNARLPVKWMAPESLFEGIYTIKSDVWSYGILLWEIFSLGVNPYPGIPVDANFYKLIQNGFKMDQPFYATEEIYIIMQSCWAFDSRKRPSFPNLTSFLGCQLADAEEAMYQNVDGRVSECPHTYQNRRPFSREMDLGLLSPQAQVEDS
From the text: (§1) Kinase binding data were obtained for various exemplary compounds prepared according to Examples 1-8 using the DiscoverX KINOMEscan® active site-directed competition binding site-directed assay protocol described below. […] As a result, the data report thermodynamic interaction affinities (Kd values), rather than IC50 values that are dependent on ATP concentrations. The assay uses a DNA-tagged version of the protein kinase, and an immobilized ligand bound to a solid support. Compounds that directly or indirectly prevent kinase binding to the immobilized ligand reduce the amount of kinase captured on the solid support, which is detected using an ultra-sensitive qPCR method. Affinity constants reported from the assay have been reported to be independent of the immobilized ligand used that is coupled to the solid support (See supplemental information in Fabian, M. A. et. al., (2005) Nat. Biotechnol. 23, 329-336; Wodicka, L. M. et. al., (2010) Chem. Biol. 17, 1241-1249.)
(§2) Kinase-tagged T7 phage strains were prepared in an E. coli host derived from the BL21 strain. E. coli were grown to log-phase and infected with T7 phage and incubated with shaking at 32 °C until lysis. The lysates were centrifuged and filtered to remove cell debris. The remaining kinases were produced in HEK-293 cells and subsequently tagged with DNA for qPCR detection. Streptavidin-coated magnetic beads were treated with biotinylated small molecule ligands for 30 minutes at room temperature to generate affinity resins for kinase assays. The liganded beads were blocked with excess biotin and washed with blocking buffer (SeaBlock (Pierce), 1% BSA, 0.05% Tween 20, 1 mM DTT) to remove unbound ligand and to reduce non-specific binding. […] Test compounds were prepared as 111x stocks in 100% DMSO. Kds were determined using an 11-point 3-fold compound dilution series with three DMSO control points. All compounds for Kd measurements are distributed by acoustic transfer (non-contact dispensing) in 100% DMSO. The compounds were then diluted directly into the assays such that the final concentration of DMSO was 0.9%. All reactions were performed in polypropylene 384-well plates. Each was a final volume of 0.02 mL. The assay plates were incubated at room temperature with shaking for 1 hour and the affinity beads were washed with wash buffer (1×PBS, 0.05% Tween 20). The beads were then re-suspended in elution buffer (1×PBS, 0.05% Tween 20, 0.5 μM nonbiotinylated affinity ligand) and incubated at room temperature with shaking for 30 minutes. The kinase concentration in the eluates was measured by qPCR. Binding constants (Kds) were calculated with a standard dose-response curve using the Hill equation. The Hill Slope was set to −1. Curves were fitted using a non-linear least square fit with the Levenberg-Marquardt algorithm.
as §1, with “9-12” for “1-8”
(§3) Kinase-tagged T7 phage strains were prepared in an E. coli host derived from the BL21 strain. […]

[2] = biological target: IRAK1 (Homo sapiens, UniProt P51617); assay: DiscoverX KINOMEscan active site-directed competition binding, IRAK1; conditions: no ATP
From the text: as §1, §2
as §1, with “9-12” for “1-8”
as §3

IRAK1, sequence (P51617 whole entry): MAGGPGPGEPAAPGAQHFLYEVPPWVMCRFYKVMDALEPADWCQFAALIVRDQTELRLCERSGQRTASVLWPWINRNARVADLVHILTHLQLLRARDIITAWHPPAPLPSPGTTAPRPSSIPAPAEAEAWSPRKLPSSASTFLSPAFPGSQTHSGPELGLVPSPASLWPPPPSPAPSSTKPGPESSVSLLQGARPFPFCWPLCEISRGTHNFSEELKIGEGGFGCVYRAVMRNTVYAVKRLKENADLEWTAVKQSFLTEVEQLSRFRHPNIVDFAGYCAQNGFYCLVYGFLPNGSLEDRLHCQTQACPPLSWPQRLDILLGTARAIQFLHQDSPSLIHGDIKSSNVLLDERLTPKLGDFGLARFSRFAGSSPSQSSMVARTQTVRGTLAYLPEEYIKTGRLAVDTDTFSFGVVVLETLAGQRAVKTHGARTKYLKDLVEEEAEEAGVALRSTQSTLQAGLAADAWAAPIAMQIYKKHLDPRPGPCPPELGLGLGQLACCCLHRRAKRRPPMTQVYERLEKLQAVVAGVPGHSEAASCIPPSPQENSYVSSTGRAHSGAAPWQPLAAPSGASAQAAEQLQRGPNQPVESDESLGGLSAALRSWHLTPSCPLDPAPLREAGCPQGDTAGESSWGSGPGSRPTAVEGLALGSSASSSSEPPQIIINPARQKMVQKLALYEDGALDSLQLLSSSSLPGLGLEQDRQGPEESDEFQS

| Structure (SMILES) | Kd ([1]; Table 18) [nM] | Kd ([2]; Table 18) [nM] | Kd ([1]; Table 12) [nM] | Kd ([2]; Table 12) [nM] |
| --- | --- | --- | --- | --- |
| COc1cn2ncc(-c3nc(N[C@H]4CNCC[C@@H]4F)ncc3F)c2nc1C(C)(C)O [Compound 6a, 2-(3-(5-fluoro-2-(((3S,4S)-4-fluoropiperidin-3-yl)amino)pyrimidin-4-yl)-6-methoxypyrazolo[1,5-a]pyrimidin-5-yl)propan-2-ol] | 0.25 | 0.28 | – | – |
| COc1cn2ncc(-c3nc(N[C@@H]4CCCNC4)ncc3F)c2nc1C1CC1 [Compound 14a, (R)-4-(5-cyclopropyl-6-methoxypyrazolo[1,5-a]pyrimidin-3-yl)-5-fluoro-N-(piperidin-3-yl)pyrimidin-2-amine] | 0.2 | < 0.17 | – | – |
| COc1cn2ncc(-c3ccnc(N[C@H]4CNCC[C@@H]4F)n3)c2nc1C1CC1 [Compound 7a, 4-(5-cyclopropyl-6-methoxypyrazolo[1,5-a]pyrimidin-3-yl)-N-((3S,4S)-4-fluoropiperidin-3-yl)pyrimidin-2-amine] | 1.2 | 0.53 | – | – |
| COc1cn2ncc(-c3nc(N[C@H]4CNCC[C@@H]4F)c(C#N)cc3F)c2nc1C(C)(C)O [Compound 10, 5-fluoro-2-(((3S,4S)-4-fluoropiperidin-3-yl)amino)-6-(5-(2-hydroxypropan-2-yl)-6-methoxypyrazolo[1,5-a]pyrimidin-3-yl)nicotinonitrile] | – | – | 0.2 | 0.81 |
| COc1cn2ncc(-c3cncc(N[C@H]4CNCC[C@@H]4F)n3)c2nc1C1CC1 [Compound 12a, 6-(5-cyclopropyl-6-methoxypyrazolo[1,5-a]pyrimidin-3-yl)-N-((3S,4S)-4-fluoropiperidin-3-yl)pyrazin-2-amine] | 0.54 | 0.78 | – | – |
| COc1cn2ncc(-c3nc(N[C@H]4CNCC[C@@H]4F)c(F)cc3F)c2nc1C(C)(C)O [Compound 13, 2-(3-(3,5-difluoro-6-(((3S,4S)-4-fluoropiperidin-3-yl)amino)pyridin-2-yl)-6-methoxypyrazolo[1,5-a]pyrimidin-5-yl)propan-2-ol] | – | – | < 0.17 | 0.27 |
| COc1cn2ncc(-c3nc(N[C@H]4CNCC[C@@H]4F)c(C#N)cc3F)c2nc1C1CC1 [Compound 7, 6-(5-cyclopropyl-6-methoxypyrazolo[1,5-a]pyrimidin-3-yl)-5-fluoro-2-(((3S,4S)-4-fluoropiperidin-3-yl)amino)nicotinonitrile] | – | – | 0.18 | < 0.17 |
| COc1cn2ncc(-c3nc(N[C@H]4CNCC[C@@H]4F)ncc3F)c2nc1C1CC1 [Compound 15a, 4-(5-cyclopropyl-6-methoxypyrazolo[1,5-a]pyrimidin-3-yl)-5-fluoro-N-((3S,4S)-4-fluoropiperidin-3-yl)pyrimidin-2-amine] | 0.37 | < 0.17 | – | – |
